These results are taken from patent publication US20180320128A1, “METHODS FOR MODULATING PRODUCTION PROFILES OF RECOMBINANT PROTEINS” (ARES TRADING S.A., priority 2015, published 2018).

What is called cell viability is a per cent measure of how many cells are alive, often set against a control.

Series [1] relates to mAb1 cells (CHO-S cells expressing IgG1 mAb1). In words: Fed-batch culture in 96 deep-well plates, constant osmolality (315 mOsm/kg), increasing sugar concentration (experimental approach 1). The conditions noted are these: for increase of High Mannose (HM) species of mAb1 with respect to control: absolute change; for cell growth with increasing sugar concentration: 0-127.5 mM; for increase of HM for mAb1 (overall conclusion): constant osmolality, concentration not given. It is filed as cell-based, Chinese hamster. As to the method:
(§1) Assays were performed with two CHO cell lines: • CHO-S cells expressing IgG1 mAb1, herein “Cells mAb1” or “mAb1 cells”. “mAb1” is a fully human monoclonal antibody directed against a soluble protein. Its isoelectric point (pI) is about 8.20-8.30. • CHO-K1 cells expressing IgG1 mAb2, herein “Cells mAb2” or “mAb2 cells”. “mAb2” is a humanized monoclonal antibody directed against a receptor found on the cell membrane. Its isoelectric point (pI) is about 9.30.
(§2) Deepwell plates: Cells expressing mAb2 were inoculated at 0.2×10^6 cells per millilitre (mL), whereas cells expressing mAb1 were inoculated at 0.3×10^6 cells per mL.
(§3) All assays were performed in fed-batch culture.
(§4) A serum-free chemically defined culture medium was used. It was used as it is (o be adapted), or it was supplemented with D-(+)-Raffinose pentahydrate (Sigma-Aldrich, 83400-25G) at different concentrations (0-45 mM). The culture medium was fed, on a regular basis, with a chemically defined feed medium, as well as with glucose in order to keep said glucose level in the range of >0 to about 8 g/L.
(§5) The cultures were performed: • In deepwell plates with a working volume of 450 μL. They were incubated at 36.5° C., 5% de CO2, 90% humidity and shaken at 320 rpm. Each of the fed-batch culture lasted 14 days. • In Spin Tubes (ST) with a working volume of 30 mL (with as permable lid). They were inoculated with a cell density of 0.3*10^6 cells/mL and maintained at 36.5° C., 320 rpm, 5% CO2 and 90% humidity for 14 days.
(§6) Viable cell density and viability were measured with the Guava easyCyte® flow cytometer.
(§7) Antibody titers were measured with the fortéBIO Octet®.
(§8) Glycosylation profiles were established by capillary gel electrophoresis with laser-induced fluorescence (CGE-LIF). Groups of glycans were defined as thereafter in Table 2.
(§9) Experiment was performed to check whether high osmolality or high sugar concentration have an influence on the viability of the cells, VCD as well as on amount of High Mannose (HM) species. A chemically defined proprietary medium with lower osmolality (PM-200) compared to standard media, was used to vary sugar concentrations from 1-150 mM (green) while maintaining the osmolality of standard media (315 mOsm/kg) via supplementation with NaCl (blue), as illustrated in FIG. 1. Standard media and PM-200 differ in the composition, so the missing amounts of raw material were added (except NaCl). As sugars raffinose (a trisaccharide) and sucrose (a disaccharide) were chosen. Stock solutions (raffinose 22 mM, raffinose 220 mM, sucrose 50 mM, sucrose 1 M and NaCl 1 M) were prepared and added to the media before inoculation.
(§10) Stock solutions were prepared with media to prevent dilution. The given concentrations equal the concentrations in media before incoculation. CHO-S cells (=mAb1 cells) expressing mAb1 were expanded for 49 days, CHO-K1 (=mAb2 cells) expressing mAb2 were expanded for 28 days.

Series [2] relates to mAb2 cells (CHO-K1 cells expressing IgG1 mAb2). The description is as above. The note with it: for increase of High Mannose (HM) species of mAb2 with respect to control: absolute change; for increase of HM for mAb2 (overall conclusion): constant osmolality, concentration not given. Format: cell-based, Chinese hamster. As to the method: as §1, §2, §3, §4, §5, §6, §7, §8, §9, §10

Series [3] shares this test system. Kind of series: Fed-batch culture in deep-well plates, 0 or 30 mM raffinose with increasing osmolality (experimental approach 2). Format: cell-based, Chinese hamster. The method, then:
as §1, §2, §3, §4, §5, §6, §7, §8, §10
The second experimental approach was performed with increasing osmolality and constant sugar concentrations (see table 3 and methods in example 1).

Series [4] relates to mAb1 cells (CHO-S cells expressing IgG1 mAb1). In words: Fed-batch culture in Spin Tubes, constant osmolality (315 mOsm/kg), increasing raffinose concentration. It is filed as cell-based, Chinese hamster. As to the method: as §1
Spintubes: Cells expressing both mAb1 and mAb2 were inoculated at 0.3×10^6 cells per mL.
as §3, §4, §5
Glycosylation profiles were established by capillary gel electrophoresis with laser-induced fluorescence (CGE-LIF). Groups of glycans were defined as thereafter in Table 2. […]
A second experiment with constant osmolality (315 mOsm/kg) and increasing raffinose concentration was performed in Spin Tubes with a working volume of 30 mL and mAb1 cells. FIG. 10a depicts VCD and viability from mAb1 cells of the experimental approach with constant osmolality and increasing raffinose concentration in Spin Tubes. […] The lowest VCD was obtained at 100 mM raffinose (10.2±0.2*10^6 cells/mL), as illustrated in FIG. 10b.

A further series has as its system recombinant CHO cells. The note with it: cited from earlier work.
Setting [5] is: 1 mM sugar in medium, 315 mOsm/kg, 14-day culture.
[6] abbreviates: 5 mM sugar, 315 mOsm/kg, working day 14.
Where [7] appears, read: 100 mM sugar, 315 mOsm/kg, working day 14.
[8] abbreviates: 425 mOsm/kg with 30 mM raffinose.
The mark [9] stands for this setting: 100 mM raffinose, Spin Tubes, absolute change.
The mark [10] stands for this setting: 80 mM sugar, 315 mOsm/kg, working day 14.
The mark [11] stands for this setting: 127.5 mM sugar, 315 mOsm/kg, working day 14.
Where [12] appears, read: 50 mM sugar, 315 mOsm/kg, working day 14.

Take `OC[C@H]1O[C@H](OC[C@H]2O[C@H](O[C@]3(CO)O[C@H](CO)[C@@H](O)[C@@H]3O)[C@H](O)[C@@H](O)[C@@H]2O)[C@H](O)[C@@H](O)[C@H]1O` [raffinose, O-α-D-Galactopyranosyl-(1→6)-α-D-g lucopyranosyl-(1→2)-β-D-fructofuranoside]: the “maximum cell concentration (VCD)” value in series [1] (setting [5]) was 16.2±1.0 *10^6 cells/mL. Further, in series [1] (setting [6]), the cell viability result is reported as “about 57%”. In series [1] (10 mM sugar, 315 mOsm/kg, working day 14), the absolute harvest titer entry was “about 2650 mg/L”. In series [1] (50 mM sugar, 315 mOsm/kg), the “increase of High Mannose (HM) species of mAb1 with respect to control” value worked out at 6.8%. Also, the “maximum cell concentration (VCD)” value in series [1] (100 mM sugar in medium, 315 mOsm/kg) is 2.3±2.1 *10^6 cells/mL. Besides, the specific productivity entry in series [1] (setting [7]) is on record as “about 45 pg/cell/day”. Besides, the “product titer compared to control” value in series [1] (1-65 mM sugar, 315 mOsm/kg, working day 14) was “higher product titer than control”. In series [1] (80-127.5 mM sugar, 315 mOsm/kg, working day 14), this compound registered an absolute harvest titer of 825 to 975 mg/L. In addition, in series [1] (315 mOsm/kg), the “change of fucosylated species of mAb1 with increasing sugar concentration” value is “decrease”; the “change of galactosylated, HM and non-fucosylated species of mAb1 with increasing sugar concentration” value is “increase”; the “cell growth with increasing sugar concentration” value is “inhibited”. For the same compound, the “specific productivity with increasing sugar concentration” value in series [1] (315 mOsm/kg, working day 14) is listed as “increased”. In series [1], the “increase of HM for mAb1 (overall conclusion)” value was determined as 7%. Further, in series [2] (5 mM sugar, 315 mOsm/kg), the “maximum cell concentration (VCD)” value is listed as 11.85±1.1 *10^6 cells/mL. Also, the “maximum VCD (lowest of the conditions)” value in series [2] (80 mM sugar, 315 mOsm/kg) is 6.4±1.7 *10^6 cells/mL. In series [2] (100 mM sugar, 315 mOsm/kg), the specific productivity entry was “about 30 pg/cell/day” and the “increase of High Mannose (HM) species of mAb2 with respect to control” value came to 6.3%. Also, the harvest titer result in series [2] (setting [7]) is on record as “about 2350 mg/L”. Moreover, in series [2] (315 mOsm/kg), the “cell growth with increasing sugar concentration” value is recorded as “reduced”; the “change of fucosylated species of mAb2 with higher sugar concentration” value is listed as “decrease”; the “change of galactosylated, HM and non-fucosylated species of mAb2 with higher sugar concentration” value is recorded as “increase”. Also, the “increase of HM for mAb2 (overall conclusion)” value in series [2] stood at 6%. Further, in series [3] (375 mOsm/kg and 30 mM raffinose), the “viability at the end of the experiment” value is given as “about 59%”. For the same compound, in series [3] (425 mOsm/kg and 30 mM raffinose, working day 14), the absolute harvest titer entry was “about 1150 mg/L”. In addition, in series [3] (setting [8]), the “increase of HM species of mAb2 with respect to control (315 mOsm/kg)” value amounted to 8.5% and the “maximum VCD (lowest of the conditions)” value is reported as 8.2±2.3 *10^6 cells/mL. Moreover, the “maximum cell concentration (VCD)” value in series [4] (10 mM raffinose, Spin Tubes, n=2) is listed as 17.8±0.2 *10^6 cells/mL. The “concentration of antibodies (harvest titer)” value in series [4] (10 mM raffinose, working day 14, Spin Tubes) was “about 2200 mg/L”. Moreover, in series [4] (100 mM raffinose, Spin Tubes), the “increase of productivity versus control” value is on record as “about 64%”; the “productivity per cell per day (PCD), peak” value is “about 23 pg/cell/day”; the “viability at the end of cultivation” value is “about 86%”. Besides, in series [4] (setting [9]), the “decrease of fucosylated glycans of mAb1 with respect to control” value is listed as 15.9% and the “increase of Man5 of mAb1 with respect to control” value came out at 7.7%. The “maximum VCD (lowest of the conditions)” value in series [4] (100 mM raffinose, Spin Tubes, n=2) was 10.2±0.2 *10^6 cells/mL. For the same compound, in series [4] (Spin Tubes, data not shown), the “acid isoforms and amount of aggregates with increasing raffinose concentration” value is reported as “increased”; the “amount of alkaline isoforms with increasing raffinose concentration” value is on record as “decreased”. In series [4] (raffinose supplementation, Spin Tubes), the “absolute change of unknown, galactosylated and sialylated glycoforms” value is reported as “not affected”. In series [4] (supplemented raffinose (10-100 mM), Spin Tubes), the “absolute harvest titer compared to control” value is given as “higher than the control”.
`CCCC(=O)[O-].[Na+]` [sodium butyrate]: in the series on recombinant CHO cells (batch culture, after 8 days of culture), the “cell viability at the end of the production run” value is reported as “less than 45%”. Besides, in the series with recombinant CHO cells (perfusion batch culture, within 6 days of treatment), the cell viability was 15%.
On to `OC[C@H]1O[C@@](CO)(O[C@H]2O[C@H](CO)[C@@H](O)[C@H](O)[C@H]2O)[C@@H](O)[C@@H]1O` [sucrose, α-D-glucopyranosyl-(1→2)-β-D-fructofuranoside], for which the “maximum cell concentration (VCD)” value in series [1] (setting [5]) is 18.2±1.7 *10^6 cells/mL; in series [1] (127 mM (maximum tested) sugar, 315 mOsm/kg) it was 9.6±3.2 *10^6 cells/mL; in series [2] (10 mM sugar, 315 mOsm/kg) it was 11.1±1.6 *10^6 cells/mL. Further, the absolute harvest titer entry in series [1] (1 mM sugar, 315 mOsm/kg, working day 14) was “about 2800 mg/L”; in series [1] (setting [10]), approximately 2550 mg/L; in series [2] (setting [6]), “about 700 mg/L”; in series [2] (setting [12]) it was “about 2100 mg/L”. Moreover, the specific productivity result in series [1] (setting [10]) is on record as “about 26 pg/cell/day”; in series [2] (setting [12]) it was “about 21 pg/cell/day”; in series [2] (setting [11]) it was “about 24 pg/cell/day”. Moreover, the “increase of High Mannose (HM) species of mAb1 with respect to control” value in series [1] (100 mM sugar, 315 mOsm/kg) is 14.2%; in series [1] (127.5 mM sugar, 315 mOsm/kg) it was 14.3%. Moreover, the cell viability in series [1] (setting [11]) was approximately 64%. The “change of fucosylated species of mAb1 with increasing sugar concentration” value in series [1] (315 mOsm/kg) was “decrease”. For the same compound, the “change of galactosylated, HM and non-fucosylated species of mAb1 with increasing sugar concentration” value in series [1] (315 mOsm/kg) was “increase”. For the same compound, the “cell growth with increasing sugar concentration” value in series [1] (315 mOsm/kg) was “inhibited”. Further, the “specific productivity with increasing sugar concentration” value in series [1] (315 mOsm/kg, working day 14) is listed as “no change”. Also, the “increase of HM for mAb1 (overall conclusion)” value in series [1] is 14%. Besides, the “increase of High Mannose (HM) species of mAb2 with respect to control” value in series [2] (100 mM sugar, 315 mOsm/kg) was determined as 6.0%; in series [2] (127.5 mM sugar, 315 mOsm/kg) it was 9.1%. Besides, the “maximum VCD (lowest of the conditions)” value in series [2] (127.5 mM sugar, 315 mOsm/kg) is 6.9±1.1 *10^6 cells/mL. In series [2] (315 mOsm/kg), the “change of fucosylated species of mAb2 with higher sugar concentration” value was “decrease”. In series [2] (315 mOsm/kg), the “change of galactosylated, HM and non-fucosylated species of mAb2 with higher sugar concentration” value is recorded as “increase”. The “increase of HM for mAb2 (overall conclusion)” value in series [2] is recorded as 9%. In series [2] (sugar supplementation, 315 mOsm/kg, working day 14), the “production of antibodies with respect to control” value is recorded as “decrease”.
